Results published in US8445510B2, “Fused bicyclic kinase inhibitors” (OSI Pharmaceuticals, LLC, priority 2011, dated 2013).

Legend:
RON = biological target: T1, RON (Homo sapiens, UniProt Q04912); experiment: sfRON cell mechanistic assay (HeLa), phosphorylated RON ELISA; assay type: cell-based; settings: HeLa cells transfected with sfRON; inhibition of phosphorylated RON; four hours incubation; at least duplicate experiments; read-out: sfRON mech IC50
T1 sequence (Q04912 913-1400): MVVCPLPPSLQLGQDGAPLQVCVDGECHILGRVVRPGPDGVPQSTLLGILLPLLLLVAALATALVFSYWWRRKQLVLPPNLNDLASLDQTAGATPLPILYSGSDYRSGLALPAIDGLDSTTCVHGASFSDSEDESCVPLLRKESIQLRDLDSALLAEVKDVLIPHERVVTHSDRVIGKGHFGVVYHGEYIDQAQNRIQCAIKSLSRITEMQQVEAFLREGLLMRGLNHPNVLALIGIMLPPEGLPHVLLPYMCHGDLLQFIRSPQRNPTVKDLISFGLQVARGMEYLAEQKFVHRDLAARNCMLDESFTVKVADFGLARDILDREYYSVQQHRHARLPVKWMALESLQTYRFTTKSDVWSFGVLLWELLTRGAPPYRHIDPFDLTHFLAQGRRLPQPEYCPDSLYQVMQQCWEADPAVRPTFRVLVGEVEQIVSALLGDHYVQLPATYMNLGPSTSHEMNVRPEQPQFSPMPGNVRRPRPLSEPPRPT
How it was run: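 HeLa cells transiently transfected with sfRON plasmid, then exposed 4 h at 37 °C to a 6-point compound series (typically 10 μM to 3 nM, 0.5% DMSO). Phospho-RON (pY1238/1239) in lysates measured by sandwich ELISA with luminescence. IC50 from 4-parameter fit of percent-of-DMSO-control data, at least duplicate runs.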

Karpas-299 cells = experiment: Karpas-299 cell proliferation assay (CellTiter-Glo); assay type: cell-based; settings: Homo sapiens, 72 h; Karpas-299 cell line (NPM-ALK); 3 days incubation; at least duplicate experiments; read-out: Prolif. IC50

SMILES	IC50 (RON) [nM]	IC50 (Karpas-299 cells) [nM]
[2H]C([2H])([2H])c1c(-c2cnc3[nH]cc([C@H](C)c4c(OC(F)F)ccc(F)c4Cl)c3c2)cnn1[C@H]1CC[C@H](O)CC1 [Example 85, trans-4-[4-(3-{(1S)-1-[2-Chloro-6-(difluoromethoxy)-3-fluorophenyl]ethyl}-1H-pyrrolo[2,3-b]pyridin-5-yl)-5-(^2H3)methyl-1H-pyrazol-1-yl]cyclohexanol]	200 to 1000	≤ 50
CCc1c(-c2cnc3[nH]cc([C@H](C)c4c(OC(F)F)ccc(F)c4Cl)c3c2)cnn1[C@H]1CC[C@H](O)CC1 [Example 78, trans-4-[4-(3-{(1S)-1-[2-Chloro-6-(difluoromethoxy)-3-fluorophenyl]ethyl}-1H-pyrrolo[2,3-b]pyridin-5-yl)-5-ethyl-1H-pyrazol-1-yl]cyclohexanol]	200 to 1000	≤ 50
Cc1nn(C[C@@H](O)CO)c(C)c1-c1cnc2[nH]cc([C@H](C)c3c(Cl)ccc(F)c3Cl)c2c1 [Example 66, (2R)-3-(4-{3-[(1S)-1-(2,6-Dichloro-3-fluorophenyl)ethyl]-1H-pyrrolo[2,3-b]pyridin-5-yl}-3,5-dimethyl-1H-pyrazol-1-yl)propane-1,2-diol]	200 to 1000	≤ 50
Cc1c(-c2cnc3[nH]cc([C@H](C)c4c(Cl)ccc(F)c4Cl)c3c2)cnn1[C@H]1CC[C@H](O)CC1 [Example 67, trans-4-(4-{3-[(1S)-1-(2,6-Dichloro-3-fluorophenyl)ethyl]-1H-pyrrolo[2,3-b]pyridin-5-yl}-5-methyl-1H-pyrazol-1-yl)cyclohexanol]	200 to 1000	50 to 200
COc1ccc(F)c(Cl)c1[C@@H](C)c1c[nH]c2ncc(-c3cn(C)nc3C(N)=O)cc12 [Example 39, 4-{3-[(1S)-1-(2-Chloro-3-fluoro-6-methoxyphenyl)ethyl]-1H-pyrrolo[2,3-b]pyridin-5-yl}-1-methyl-1H-pyrazole-3-carboxamide]	> 1000	200 to 1000
COc1ccc(F)c(Cl)c1[C@@H](C)c1c[nH]c2ncc(-c3cnn([C@H]4CC[C@H](C(=O)N(C)C)CC4)c3C)cc12 [Example 14, Trans-4-(4-{3-[(1S)-1-(2-chloro-3-fluoro-6-methoxyphenyl)ethyl]-1H-pyrrolo[2,3-b]pyridin-5-yl}-5-methyl-1H-pyrazol-1-yl)-N,N-dimethylcyclohexanecarboxamide]	200 to 1000	≤ 50
COc1ccc(F)c(Cl)c1[C@@H](C)c1c[nH]c2ncc(-c3cnn([C@H]4CC[C@H](N(C)C)CC4)c3C)cc12 [Example 53, trans-4-(4-{3-[(1S)-1-(2-Chloro-3-fluoro-6-methoxyphenyl)ethyl]-1H-pyrrolo[2,3-b]pyridin-5-yl}-5-methyl-1H-pyrazol-1-yl)-N,N-dimethylcyclohexanamine]	200 to 1000	≤ 50
COc1ccc(F)c(Cl)c1[C@@H](C)c1c[nH]c2ncc(-c3cnn([C@H]4CC[C@H](O)CC4)c3C)cc12 [Example 27, trans-4-(4-{3-[(1S)-1-(2-Chloro-3-fluoro-6-methoxyphenyl)ethyl]-1H-pyrrolo[2,3-b]pyridin-5-yl}-5-methyl-1H-pyrazol-1-yl)cyclohexanol]	200 to 1000	≤ 50
COc1ccc(F)c(Cl)c1[C@@H](C)c1c[nH]c2ncc(-c3c(C)nn(CC(C)(C)O)c3C)cc12 [Example 5, 1-(4-{3-[(1S)-1-(2-Chloro-3-fluoro-6-methoxyphenyl)ethyl]-1H-pyrrolo[2,3-b]pyridin-5-yl}-3,5-dimethyl-1H-pyrazol-1-yl)-2-methylpropan-2-ol]	> 1000	≤ 50
CCc1c(-c2cnc3[nH]cc([C@H](C)c4c(OC)ccc(F)c4Cl)c3c2)cnn1CC(C)(C)O [Example 11, 1-(4-{3-[(1S)-1-(2-Chloro-3-fluoro-6-methoxyphenyl)ethyl]-1H-pyrrolo[2,3-b]pyridin-5-yl}-5-ethyl-1H-pyrazol-1-yl)-2-methylpropan-2-ol]	200 to 1000	200 to 1000
C[C@H](c1c(OC(F)F)ccc(F)c1Cl)c1c[nH]c2ncc(-c3cnn([C@H]4CC[C@H](O)CC4)c3F)cc12 [Example 84, trans-4-[4-(3-{(1S)-1-[2-Chloro-6-(difluoromethoxy)-3-fluorophenyl]ethyl}-1H-pyrrolo[2,3-b]pyridin-5-yl)-5-fluoro-1H-pyrazol-1-yl]cyclohexanol]	200 to 1000	50 to 200
COc1ccc(F)c(Cl)c1[C@@H](C)c1c[nH]c2ncc(-c3cnn(C)c3C(N)=O)cc12 [Example 43, 4-{3-[(1S)-1-(2-Chloro-3-fluoro-6-methoxyphenyl)ethyl]-1H-pyrrolo[2,3-b]pyridin-5-yl}-1-methyl-1H-pyrazole-5-carboxamide]	> 1000	> 1000
C[C@H](c1c(OC(F)F)ccc(F)c1Cl)c1c[nH]c2ncc(-c3cnn([C@H]4CC[C@H](O)CC4)c3CO)cc12 [Example 83, trans-4-[4-(3-{(1S)-1-[2-Chloro-6-(difluoromethoxy)-3-fluorophenyl]ethyl}-1H-pyrrolo[2,3-b]pyridin-5-yl)-5-(hydroxymethyl)-1H-pyrazol-1-yl]cyclohexanol]	200 to 1000	50 to 200

Further lines, results first:

IC50 (RON) [nM]	IC50 (Karpas-299 cells) [nM]	SMILES
200 to 1000	50 to 200	C[C@H](c1c(OC(F)F)ccc(F)c1Cl)c1c[nH]c2ncc(-c3cnn([C@H]4CC[C@H](O)CC4)c3Cl)cc12 [Example 82, trans-4-[5-Chloro-4-(3-{(1S)-1-[2-chloro-6-(difluoromethoxy)-3-fluorophenyl]ethyl}-1H-pyrrolo[2,3-b]pyridin-5-yl)-1H-pyrazol-1-yl]cyclohexanol]
≤ 200	≤ 50	Cc1nn(C[C@@H](O)CO)c(C)c1-c1cnc2[nH]cc([C@H](C)c3c(OC(F)F)ccc(F)c3Cl)c2c1 [Example 69, (2R)-3-[4-(3-{(1S)-1-[2-Chloro-6-(difluoromethoxy)-3-fluorophenyl]ethyl}-1H-pyrrolo[2,3-b]pyridin-5-yl)-3,5-dimethyl-1H-pyrazol-1-yl]propane-1,2-diol]
≤ 200	≤ 50	CC(=O)N1CCC(n2ncc(-c3cnc4[nH]cc([C@H](C)c5c(OC(F)F)ccc(F)c5Cl)c4c3)c2C)CC1 [Example 97, 1-{4-[4-(3-{(1S)-1-[2-Chloro-6-(difluoromethoxy)-3-fluorophenyl]ethyl}-1H-pyrrolo[2,3-b]pyridin-5-yl)-5-methyl-1H-pyrazol-1-yl]piperidin-1-yl}ethanone]
≤ 200	≤ 50	Cc1c(-c2cnc3[nH]cc([C@H](CF)c4c(OC(F)F)ccc(F)c4Cl)c3c2)cnn1[C@H]1CC[C@H](O)CC1 [Example 124, trans-4-[4-(3-{(1S)-1-[2-chloro-6-(difluoromethoxy)-3-fluorophenyl]-2-fluoroethyl}-1H-pyrrolo[2,3-b]pyridin-5-yl)-5-methyl-1H-pyrazol-1-yl]cyclohexanol]
≤ 200	≤ 50	C[C@H](c1c(OC(F)F)ccc(F)c1Cl)c1c[nH]c2ncc(-c3cnc(N4CCC(O)CC4)n3C)cc12 [Example 125, 1-[5-(3-{(1S)-1-[2-Chloro-6-(difluoromethoxy)-3-fluorophenyl]ethyl}-1H-pyrrolo[2,3-b]pyridin-5-yl)-1-methyl-1H-imidazol-2-yl]piperidin-4-ol]
≤ 200	≤ 50	Cc1c(-c2cnc3[nH]cc([C@H](C)c4c(OC(F)F)ccc(F)c4Cl)c3c2)cnn1[C@@H]1C[C@@H](O)[C@@H](O)C1 [Example 75, (1R,2S,4S)-4-[4-(3-{(1S)-1-[2-Chloro-6-(difluoromethoxy)-3-fluoro-phenyl]ethyl}-1H-pyrrolo[2,3-b]pyridin-5-yl)-5-methyl-1H-pyrazol-1-yl]cyclopentane-1,2-diol]
≤ 200	50 to 200	COc1ccc(F)c(Cl)c1[C@@H](C)c1c[nH]c2ncc(-c3cn([C@H]4CC[C@H](O)CC4)nc3OC)cc12 [Example 99, trans-4-(4-{3-[(1S)-1-(2-chloro-3-fluoro-6-methoxyphenyl)ethyl]-1H-pyrrolo[2,3-b]pyridin-5-yl}-3-methoxy-1H-pyrazol-1-yl)cyclohexanol]
≤ 200	≤ 50	CNC(=O)[C@H]1CC[C@H](n2cc(-c3cnc4[nH]cc([C@H](C)c5c(OC)ccc(F)c5Cl)c4c3)c(C)n2)CC1 [Example 22, trans-4-(4-{3-[(1S)-1-(2-Chloro-3-fluoro-6-methoxyphenyl)ethyl]-1H-pyrrolo[2,3-b]pyridin-5-yl}-3-methyl-1H-pyrazol-1-yl)-N-methylcyclohexanecarboxamide]
≤ 200	50 to 200	COc1nn([C@H]2CC[C@H](O)CC2)cc1-c1cnc2[nH]cc([C@H](C)c3c(OC(F)F)ccc(F)c3Cl)c2c1 [Example 100, trans-4-[4-(3-{(1S)-1-[2-chloro-6-(difluoromethoxy)-3-fluorophenyl]ethyl}-1H-pyrrolo[2,3-b]pyridin-5-yl)-3-methoxy-1H-pyrazol-1-yl]cyclohexanol]
